In PubChem BioAssay (NCI):
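Cultured in 96-well plates, cells were exposed to test compound for 48 hours across five concentrations. The concentration for full growth arrest is given as TGI.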 Where a SMILES comes first, the peptide text is derived from it. [ ]: non-standard residue; d: D form. The star is where a group is joined. NMeF = CN[CH](Cc1ccccc1)C(=O)O; NMeV = CN[CH](C(=O)O)C(C)C; Boc = CC(C)(C)OC(=O)*; OBn = c1ccc(CO*)cc1

Legend:
Assay in all cases: DTP human tumour cell line panel, 48 h
UACC-62 melanoma = test system: UACC-62 melanoma
MDA-MB-435 = test system: MDA-MB-435
LOX IMVI melanoma = test system: LOX IMVI melanoma
MCF7 breast = test system: MCF7 breast
EKVX NSCLC = test system: EKVX NSCLC
OVCAR-8 ovarian = test system: OVCAR-8 ovarian
SK-MEL-2 melanoma = test system: SK-MEL-2 melanoma
SK-MEL-5 melanoma = test system: SK-MEL-5 melanoma
SF-295 CNS = test system: SF-295 CNS
MALME-3M melanoma = test system: MALME-3M melanoma
T-47D breast = test system: T-47D breast
HOP-92 NSCLC = test system: HOP-92 NSCLC
SNB-75 CNS = test system: SNB-75 CNS

Compound | TGI (UACC-62 melanoma) [µM] | TGI (MDA-MB-435) [µM] | TGI (LOX IMVI melanoma) [µM] | TGI (MCF7 breast) [µM] | TGI (EKVX NSCLC) [µM] | TGI (OVCAR-8 ovarian) [µM] | TGI (SK-MEL-2 melanoma) [µM] | TGI (SK-MEL-5 melanoma) [µM] | TGI (SF-295 CNS) [µM] | TGI (MALME-3M melanoma) [µM] | TGI (T-47D breast) [µM] | TGI (HOP-92 NSCLC) [µM] | TGI (SNB-75 CNS) [µM]
COc1ccc(OC)c(CNc2ccc(O)c(C(=O)NCCc3ccc(F)cc3)c2)c1 | 25.7 | 8.34 | 25.3 | 59.2 | 65.6 | 37.6 | 26.4 | 19.9 | 51.7 |  |  |  | 
Cc1cc(S(=O)(=O)O)ccc1N=Nc1ccc(N=Nc2c(O)ccc3ccccc23)c(C)c1 | > 100 | > 100 | > 100 |  | > 100 | > 100 | > 100 | > 100 | > 100 | > 100 | > 100 | > 100 | > 100
CC(=O)c1ccc2c(c1)oc(=O)n2CCN(C)C | > 100 | > 100 | > 100 | > 100 | > 100 | > 100 | > 100 |  | > 100 | > 100 |  |  | > 100
Cc1cc(NC2=NCCO2)c2c(c1C)CCCC2 | 41.1 | 39.5 |  | 31 | > 100 | > 100 |  | 31.5 | 31.8 | 25.9 | 76.5 | 13.6 | 67.5
c1ccc(C(=NNc2nc3ccccc3[nH]2)c2ccccn2)nc1 |  | > 74 | 27.8 |  | 3.38 | > 33.2 | > 100 | 1.69 | 35.4 |  | > 100 | 0.182 | 
CC(C)(C)OC(=O)NC(CCCCNC(=O)OCc1ccccc1)C(=O)NC(CCCCNC(=O)OCc1ccccc1)C(=O)ON1C(=O)CCC1=O (centres undefined) | > 100 |  |  | > 100 | > 100 | > 100 | > 100 | > 100 |  | > 100 | > 100 | > 100 | > 100
Cc1cc2nc3n(c2cc1C)C(c1c(F)cccc1F)SC3 (centres undefined) | > 10 | 30.9 | 30.3 | 34.2 | 75.4 | > 100 | 39.7 | 28.2 | 54.2 | 65.1 | > 100 |  | > 100
CCOC(=O)N(CC)c1c(C(F)(F)F)cc(-c2ccccc2)[nH]c1=O | > 100 | 56.7 | > 100 | > 100 | 95.1 | > 100 | > 100 | > 100 | > 100 |  | > 100 | > 100 | 
CC(O)(c1ccccc1)c1nccc2ccccc12 (centres undefined) | > 100 | 39.2 | > 100 | > 100 |  | > 100 |  | > 100 | > 100 | > 100 | > 100 | 95.2 | > 100
CC(=O)Oc1ccc(OC(Oc2ccccc2)c2ccccc2)cc1 (centres undefined) | 44.6 | 94.3 | 52.6 | 82.2 | > 100 | > 100 |  |  | > 100 | 52.9 | > 100 | 34.9 | 64.4
CCCCNC(=S)/N=C/c1c(O)c2ccccc2oc1=O |  | > 100 | > 100 | > 100 | > 100 | > 100 | > 100 | > 100 | > 100 |  | > 100 | > 100 | > 100
O=c1c2c([nH]c3cc4c(cc13)OCO4)-c1ccccc1CCC2 | > 50 | > 50 | > 50 | > 50 | > 50 | > 50 |  | > 50 | > 50 | > 50 |  | > 50 | > 50
C=CCN1CC2CN=NC2(C#N)C1 (centres undefined) | > 100 | > 100 | > 100 | > 100 | > 100 | > 100 | > 100 | > 100 | > 100 | > 100 | > 100 |  | > 100
COCC(=O)[C@]1(O)Cc2c(O)c3c(c(O)c2[C@@H](OC2CC(N)C(O)C(C)O2)C1)C(=O)c1c(OC)cccc1C3=O (some centres undefined) | 0.255 |  | 0.148 |  | 2.9 | 3.95 | 0.259 | 0.228 | 1.34 | 0.335 | 0.737 | 1.12 | 0.161
C[C@]12CCC(=O)C=C1CC[C@@H]1[C@@H]2C(=O)C[C@@]2(C)[C@H]1CC[C@]2(O)C(=O)CO |  |  |  |  | > 100 | > 100 | > 100 | > 100 | > 100 | > 100 |  | > 100 | > 100
O=C(c1ccc(Cl)cc1)N(C(=S)N1CCN(c2ccccn2)CC1)c1ccccc1 | > 100 |  | > 100 |  |  | > 100 | > 100 | > 100 | > 100 | > 100 |  | > 100 | > 100
CC1NOC(NS(=O)(=O)c2ccc(N=Nc3c(O)c(C(=O)O)cc4ccccc34)cc2)C1C (centres undefined) | > 100 | > 100 |  | > 100 | > 100 | > 100 | > 100 | > 100 | > 100 | > 100 |  | > 100 | > 100
CC1(C)Oc2ccc(Cl)cc2C12CC2 | > 100 | 32.6 | 30.9 | 33.3 | 37.9 | 28.4 | 33.4 | 38.6 | 27 | 43.2 | 73.8 |  | 32.3
O=C(CCc1cc(O)cc(O)c1)NCCc1ccc(O)c(O)c1 | > 100 | 52.8 | > 100 | > 100 | > 100 | > 100 | > 100 | > 100 | > 100 |  | > 100 | > 100 | > 100
CC[C@@]1(O)C(=O)OCc2c1cc1n(c2=O)Cc2c-1nc1ccccc1c2/C=N\NC(=O)C(N)CS (some centres undefined) | 0.761 | > 100 | 13.4 | > 100 | > 100 | > 100 | > 100 | 3.9 | > 33.9 | > 100 |  | > 57.1 | 14

Compound | TGI (UACC-62 melanoma) [µM] | TGI (MDA-MB-435) [µM] | TGI (LOX IMVI melanoma) [µM] | TGI (MCF7 breast) [µM] | TGI (EKVX NSCLC) [µM] | TGI (OVCAR-8 ovarian) [µM] | TGI (SK-MEL-2 melanoma) [µM] | TGI (SK-MEL-5 melanoma) [µM] | TGI (SF-295 CNS) [µM] | TGI (MALME-3M melanoma) [µM] | TGI (T-47D breast) [µM] | TGI (HOP-92 NSCLC) [µM] | TGI (SNB-75 CNS) [µM]
O=C1CCC2=C(CCC2)N1CCc1ccc2c(c1)OCO2 | > 100 |  | > 100 | > 100 | > 100 |  | > 100 | > 100 | > 100 | > 100 | > 100 |  | > 100
CCN(CC)C(=S)SNCCc1ccc(S(N)(=O)=O)cc1 | > 94.1 | 29.6 | 33 |  | 40 | 25.2 | > 86.7 | 24.4 | 47.5 | 24.3 | 45.1 | 35.1 | 27
CC1CCC2c3c([nH]c4ccccc34)C3C(=O)N(C4CCCCC4)C(=O)C3C2C1 (centres undefined) | 28.8 | > 100 | > 100 |  | 39.6 | 42.5 | 40.3 | 36.1 | 37.5 | > 100 |  | 44.9 | 8.51
C=C1C(=O)[C@]23[C@H](O)[C@H]1CC[C@H]2[C@@]12CO[C@@]3(O)C[C@@H]1C(C)(C)CC[C@@H]2O |  | 7.61 | 13.9 | 13.1 | > 25 | > 25 |  | > 25 | > 25 | 23.4 |  | > 25 | > 25
O=C([C@H](O)[C@@H](O)c1ccc(Br)cc1)C12CC3CC(CC(C3)C1)C2 | 25.8 | > 56.4 | > 100 | > 39.7 | > 76.9 | > 100 | > 31.6 | > 56.2 | 47.1 | 51.4 | > 29.3 |  | 8.2
O=c1[nH]c(=O)n(C2CC(O)C(CO)O2)cc1NN=NCc1ccccc1 (centres undefined) | > 100 | > 100 | > 100 | > 100 | > 100 | > 100 |  | > 100 | > 100 | > 100 | > 100 |  | > 100
O=C(/C=C/c1cccs1)c1ccsc1 | 38.5 | 39.8 | 35.1 | > 100 | > 100 | 96.5 | > 100 | 36 | > 100 | 59 | 72 |  | 89
O=C1c2ccccc2C2(c3ccc(Cl)cc3)NCc3ccccc3CN12 (centres undefined) | 33.5 | > 100 | 29.7 | 40 | 49.1 | 60.8 | 29.5 | 29.5 | 35.7 |  | 49.9 | 56 | > 100
CC(=O)OCC1OC(OCC2OC(N3C(=S)N[C@H]([C@@H](O)[C@H](O)[C@H](O)CO)[C@H]3O)C(OC(C)=O)C(OC(C)=O)C2OC(C)=O)C(OC(C)=O)C(OC(C)=O)C1OC(C)=O (some centres undefined) | > 100 | > 100 |  | > 100 |  | > 100 | > 100 | > 100 | > 100 | > 100 | > 100 | > 100 | 
Brc1cccc(C2(CCCC3(c4cccc(Br)n4)OCCO3)OCCO2)n1 |  | > 100 | > 100 | > 100 | > 100 |  | > 100 | > 100 | > 100 |  | > 100 | > 100 | 84
CN(N)C(=O)NCCCl | > 100 | > 100 | > 100 | > 100 | > 100 |  | > 100 | > 100 | > 100 | > 100 |  | > 100 | > 100
CC1=CC(=O)c2cccc(NC3=NCCO3)c21 | > 100 | 86.2 | > 100 |  | > 100 |  | > 100 | 42.3 | > 100 | 91.6 | > 100 | 77.7 | > 100
N=C(N)n1[nH]c2c(c1=O)CCC2 | > 100 | > 100 | > 100 | > 100 |  | > 100 | > 100 | > 100 | > 100 | > 100 |  | > 100 | > 100
CC(C)C(NC(=O)OC(C)(C)C)C(=O)N(C)C(Cc1ccccc1)C(=O)N(C)C(C(=O)N(C)C(C(=O)OCc1ccccc1)C(C)C)C(C)C (centres undefined) (Boc-V[NMeF][NMeV][NMeV]-OBn; configuration not given here) | > 100 |  | > 100 |  | > 100 | > 100 |  | > 100 | > 100 | > 100 |  |  | 
Cc1ccnc(NC(=S)Nc2ccccc2Cl)c1 | > 100 | > 100 | > 100 | > 100 | > 100 | > 100 | > 100 | > 100 | > 100 | > 100 | > 100 |  | 71.7
ClCc1c(-c2ccccc2)nn(-c2ccccc2)c1CCl | 21.4 | 6.42 |  | 23.5 |  | 30.8 | 26.5 | 25.2 | 32.8 | 30.6 | 5.96 | 7.69 | 16.7
Sc1nnc(-c2ccccc2Nc2ccccc2-c2nnc(S)n2-c2ccccc2)n1-c1ccccc1 | > 100 | 53 | > 100 | > 100 | 97.9 | > 100 | 84.2 | 80.9 | > 100 |  | 88.2 | 48.2 | 90.8
CCN(CC)C(=O)c1c(N2CCOCC2)cc(N(CC)CC)oc1=O | > 100 |  | > 100 |  | > 100 | > 100 | > 100 |  | > 100 | > 100 |  | > 100 | > 100
COC(=O)c1ccc(C)cc1C1CN=NC12Cc1cc(C)c(C)cc1C2=O (centres undefined) |  | 96.6 | > 100 | > 100 | 99.7 | > 100 |  | 49.2 | > 100 | > 100 |  | > 100 | > 100
